# Results as given in ChEMBL document CHEMBL4602684, “Siderophores from the Entomopathogenic Fungus Beauveria bassiana” (J Nat Prod, 2020).
# Where a name gives a salt, the structure may show the parent alone. Active and inactive are the calls of the source. The rule behind the calls is not given here.
# Key:
# [1] = Binding affinity to Fe3+ assessed as formation of Fe3+-compound complex incubated for 22 hrs by liquid CAS assay
# [2] = Binding affinity to Fe3+ assessed as formation of Fe3+-compound complex in presence of FeCl3 by HRESIMS method
# [3] = Binding affinity to Fe3+ assessed as formation of Fe3+-compound complex at 100 ug/disk by CAS agar disk diffusion method
# [4] = Binding affinity to Fe3+ assessed as formation of Fe3+-compound complex stoichiometry ratio of 1:1 by HRESIMS method
# [5] = Binding affinity to Fe3+ assessed as formation of Fe3+-compound complex stoichiometry ratio of 2:1 by HRESIMS method
# [6] = Binding affinity to Fe3+ assessed as formation of Fe3+-compound complex stoichiometry ratio of 3:1 by HRESIMS method
Structure (SMILES),EC50 [1] [µM],Activity [2],Activity [3],Activity [4],Activity [5],Activity [6]
CO[C@H]1[C@H](O)[C@H](O)[C@H](OCC[C@@](C)(O)CC(=O)N(O)CCC[C@@H]2NC(=O)[C@H](CCCN(O)C(=O)/C=C(\C)CCO)NC2=O)O[C@@H]1CO,–,Active,Active,–,–,–
CO[C@H]1[C@H](O)[C@H](O)[C@H](OCC/C(C)=C/C(=O)N(O)CCC[C@@H]2NC(=O)[C@H](CCCN(O)C(=O)/C=C(\C)CCO)NC2=O)O[C@@H]1CO,–,Active,Active,–,–,–
C/C(=C\C(=O)N(O)CCC[C@@H]1NC(=O)[C@H](CCC[N+](=O)[O-])NC1=O)CCO,–,–,inactive,Active,Active,inactive
C/C(=C\C(=O)N(O)CCC[C@@H]1NC(=O)[C@H](CCCN(O)C(=O)/C=C(\C)CCO)NC1=O)CCO,13,Active,Active,–,–,–
C/C(=C\C(=O)NCCC[C@@H]1NC(=O)[C@H](CCCNC(=O)/C=C(\C)CCO)NC1=O)CCO,–,inactive,inactive,–,–,–
C/C(=C\C(=O)N(O)CCC[C@@H]1NC(=O)[C@H](CCCN(O)C(=O)/C=C(\C)CCO[C@@H]2O[C@H](CO)[C@@H](O)[C@H](O)[C@@H]2O)NC1=O)CCO,–,Active,Active,–,–,–

# Other lines, results leading:
EC50 [1] [µM],Activity [2],Activity [3],Activity [4],Activity [5],Activity [6],Structure (SMILES)
20,–,–,–,–,–,CC(=O)N(O)CCCCCNC(=O)CCC(=O)N(O)CCCCCNC(=O)CCC(=O)N(O)CCCCCN [DEFEROXAMINE MESYLATE]
–,Active,Active,–,–,–,C/C(=C\C(=O)N(O)CCC[C@@H]1NC(=O)[C@H](CCCN(O)C(=O)C[C@](C)(O)CCO)NC1=O)CCO
15.7,Active,Active,–,–,–,C/C(=C\C(=O)N(O)CCC[C@@H]1NC(=O)[C@H](CCCN(O)C(=O)/C=C(\C)CCO[C@@H]2O[C@H](CO)[C@@H](O)[C@H](O)[C@@H]2O)NC1=O)CCOC(=O)[C@H](CCCN(O)C(=O)/C=C(\C)CCO[C@@H]1O[C@H](CO)[C@@H](O)[C@H](O)[C@@H]1O)[N+](C)(C)[O-]
–,–,inactive,–,–,–,C/C(=C\C(=O)N(O)CCC[C@@H](N)C(=O)O)CCO
–,–,inactive,Active,Active,inactive,CO[C@H]1[C@H](O)[C@H](O)[C@H](OCC/C(C)=C/C(=O)N(O)CCC[C@@H](C(=O)O)N(C)C)O[C@@H]1CO
–,Active,Active,–,–,–,C[C@@](O)(CCO)CC(=O)N(O)CCC[C@@H]1NC(=O)[C@H](CCCN(O)C(=O)C[C@](C)(O)CCO)NC1=O
–,–,inactive,Active,Active,inactive,CO[C@H]1[C@H](O)[C@H](O)[C@H](OCC/C(C)=C/C(=O)N(O)CCC[C@@H](C(=O)O)[N+](C)(C)[O-])O[C@@H]1CO
–,Active,Active,–,–,–,C/C(=C\C(=O)N(O)CCC[C@@H]1NC(=O)[C@H](CCCN(O)C(=O)C[C@](C)(O)CCO[C@@H]2O[C@H](CO)[C@@H](O)[C@H](O)[C@@H]2O)NC1=O)CCO
